{
  "source": "paper PMC5448077",
  "about": "“Development of an orally available inhibitor of CLK1 for skipping a mutated dystrophin exon in Duchenne muscular dystrophy” (Scientific Reports, 2017)",
  "experiment_in_all_cases": "biochemical",
  "key": {"[1]": {"target": "AKT3 (Homo sapiens, UniProt Q9Y243)", "protocol": "(§1) These assays rely on the phosphorylation of small synthetic peptides developed for each kinase, and detect activity by changes in electrophoretic mobility (MSA assay) or by binding of a fluorescently labelled peptide to a large micro-particle and concomitant polarization increases (IMAP assay). Reaction conditions for each kinase are described in Supplementary Table S5. All kinase assays were carried out at Carna Biosciences (Kobe, Japan). The inhibitory map was constructed using Kinome Render[41]. Inhibitor (4×), substrate/ATP-Metal (4×), and kinase (2×) solutions were prepared with assay buffer (20 mM HEPES, 0.01% Triton X-100, 2 mM DTT, pH 7.5) and mixed in 384-well plates at room temperature for 1 or 5 h depending on the kinase. Reactions were stopped by the addition of termination buffer (QuickScout Screening Assist MSA; Carna Biosciences). The entire reaction mixture was then applied to a LabChip system (Perkin-Elmer, Waltham, MA, USA) and the product and substrate peptide peaks were separated and quantified, and then heights of product (P) and substrate (S) peptide peaks were calculated. The level of kinase activity was evaluated with the following equation: activity = P/(P + S)."}, "[2]": {"target": "ALK(L1196M) (Homo sapiens, UniProt Q9UM73, L1196M)", "protocol": "as §1"}, "[3]": {"target": "T1, ARG (Homo sapiens, UniProt P42684)", "T1 construct": "gene ABL2", "protocol": "as §1"}, "[4]": {"target": "BLK (Homo sapiens, UniProt P51451)", "sequence (P51451 whole entry)": "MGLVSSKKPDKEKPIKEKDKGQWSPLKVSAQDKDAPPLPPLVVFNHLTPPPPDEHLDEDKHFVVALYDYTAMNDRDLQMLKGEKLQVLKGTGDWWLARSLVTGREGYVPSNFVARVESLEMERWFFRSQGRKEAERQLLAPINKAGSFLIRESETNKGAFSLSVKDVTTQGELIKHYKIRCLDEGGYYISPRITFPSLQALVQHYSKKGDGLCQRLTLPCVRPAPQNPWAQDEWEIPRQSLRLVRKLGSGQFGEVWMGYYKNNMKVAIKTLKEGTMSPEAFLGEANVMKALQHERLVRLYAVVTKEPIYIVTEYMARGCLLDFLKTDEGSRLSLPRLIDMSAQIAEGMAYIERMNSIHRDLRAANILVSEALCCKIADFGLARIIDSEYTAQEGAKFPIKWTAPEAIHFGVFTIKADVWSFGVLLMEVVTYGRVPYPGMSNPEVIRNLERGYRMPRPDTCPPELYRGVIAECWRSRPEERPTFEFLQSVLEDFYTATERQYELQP", "protocol": "as §1"}, "[5]": {"target": "BRSK2 (Homo sapiens, UniProt Q8IWQ3)", "protocol": "as §1"}, "[6]": {"target": "T2, CHK2 (Homo sapiens, UniProt O96017)", "T2 construct": "gene CHEK2", "protocol": "as §1"}, "[7]": {"target": "T3, CK1γ2 (Homo sapiens, UniProt P78368)", "T3 construct": "gene CSNK1G2", "protocol": "as §1"}, "[8]": {"target": "T4, CK2α2/β (Homo sapiens, UniProt P19784)", "T4 construct": "gene CSNK2A2", "protocol": "as §1"}, "[9]": {"target": "T5, CaMK2β (Homo sapiens, UniProt Q13554)", "T5 construct": "gene CAMK2B", "protocol": "as §1"}, "[10]": {"target": "EEF2K (Homo sapiens, UniProt O00418)", "protocol": "as §1"}, "[11]": {"target": "EGFR(T790M/L858R) (Homo sapiens, UniProt P00533, L858R/T790M)", "protocol": "as §1"}, "[12]": {"target": "EPHA5 (Homo sapiens, UniProt P54756)", "protocol": "as §1"}, "[13]": {"target": "EPHB3 (Homo sapiens, UniProt P54753)", "sequence (P54753 whole entry)": "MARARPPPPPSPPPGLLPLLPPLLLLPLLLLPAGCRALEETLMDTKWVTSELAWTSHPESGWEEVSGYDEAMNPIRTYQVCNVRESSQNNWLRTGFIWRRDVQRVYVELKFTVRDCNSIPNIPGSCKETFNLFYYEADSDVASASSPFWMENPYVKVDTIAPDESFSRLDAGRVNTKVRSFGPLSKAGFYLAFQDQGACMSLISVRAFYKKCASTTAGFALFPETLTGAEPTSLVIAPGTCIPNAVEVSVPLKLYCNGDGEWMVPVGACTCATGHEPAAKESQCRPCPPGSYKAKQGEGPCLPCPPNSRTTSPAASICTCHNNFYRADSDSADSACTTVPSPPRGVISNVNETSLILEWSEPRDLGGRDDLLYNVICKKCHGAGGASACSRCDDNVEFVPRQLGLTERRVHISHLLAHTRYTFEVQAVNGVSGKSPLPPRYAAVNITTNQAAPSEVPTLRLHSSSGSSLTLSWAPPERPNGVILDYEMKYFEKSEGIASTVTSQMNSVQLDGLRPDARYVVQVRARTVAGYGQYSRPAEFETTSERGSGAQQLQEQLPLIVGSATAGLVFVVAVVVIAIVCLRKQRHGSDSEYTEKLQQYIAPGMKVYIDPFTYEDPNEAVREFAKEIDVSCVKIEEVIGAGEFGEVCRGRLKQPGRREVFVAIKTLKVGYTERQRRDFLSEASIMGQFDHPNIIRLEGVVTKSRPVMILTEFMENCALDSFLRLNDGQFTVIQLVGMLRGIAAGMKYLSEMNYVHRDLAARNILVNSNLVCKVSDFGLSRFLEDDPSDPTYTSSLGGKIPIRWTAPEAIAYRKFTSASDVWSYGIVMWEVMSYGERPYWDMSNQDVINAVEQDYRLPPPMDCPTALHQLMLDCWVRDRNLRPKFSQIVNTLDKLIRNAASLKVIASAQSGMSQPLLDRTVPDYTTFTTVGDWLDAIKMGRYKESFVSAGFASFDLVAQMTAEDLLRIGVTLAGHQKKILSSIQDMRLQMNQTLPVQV", "protocol": "as §1"}, "[14]": {"target": "FGFR1 (Homo sapiens, UniProt P11362)", "protocol": "as §1"}, "[15]": {"target": "FGFR1(V561M) (Homo sapiens, UniProt P11362, V561M)", "protocol": "as §1"}, "[16]": {"target": "FGR (Homo sapiens, UniProt P09769)", "sequence (P09769 whole entry)": "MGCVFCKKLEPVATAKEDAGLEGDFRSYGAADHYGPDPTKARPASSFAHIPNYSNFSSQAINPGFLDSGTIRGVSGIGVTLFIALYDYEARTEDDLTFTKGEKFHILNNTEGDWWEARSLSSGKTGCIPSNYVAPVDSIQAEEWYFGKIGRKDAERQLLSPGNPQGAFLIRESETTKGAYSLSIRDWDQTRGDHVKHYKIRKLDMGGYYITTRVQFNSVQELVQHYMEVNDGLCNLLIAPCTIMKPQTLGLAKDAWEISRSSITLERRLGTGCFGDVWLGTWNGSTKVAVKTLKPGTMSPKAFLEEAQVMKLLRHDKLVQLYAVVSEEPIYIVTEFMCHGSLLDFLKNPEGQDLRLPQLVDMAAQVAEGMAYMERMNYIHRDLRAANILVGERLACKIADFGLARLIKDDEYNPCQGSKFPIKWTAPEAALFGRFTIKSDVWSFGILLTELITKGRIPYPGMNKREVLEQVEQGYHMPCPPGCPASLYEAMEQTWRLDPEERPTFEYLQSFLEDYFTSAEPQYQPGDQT", "protocol": "as §1"}, "[17]": {"target": "T6, JNK1 (Homo sapiens, UniProt P45983)", "T6 construct": "gene MAPK8", "protocol": "as §1"}, "[18]": {"target": "T7, JNK2 (Homo sapiens, UniProt P45984)", "T7 construct": "gene MAPK9", "protocol": "as §1"}, "[19]": {"target": "KIT(D816Y) (Homo sapiens, UniProt P10721, D816Y)", "protocol": "as §1"}, "[20]": {"target": "T8, LYNb (Homo sapiens, UniProt P07948)", "T8 construct": "gene LYN; isoform b", "protocol": "as §1"}, "[21]": {"target": "MARK3 (Homo sapiens, UniProt P27448)", "protocol": "as §1"}, "[22]": {"target": "T9, MNK1 (Homo sapiens, UniProt Q9BUB5)", "T9 construct": "gene MKNK1", "protocol": "as §1"}, "[23]": {"target": "T10, MST2 (Homo sapiens, UniProt Q13188)", "T10 construct": "gene STK3", "protocol": "as §1"}, "[24]": {"target": "T11, NDR2 (Homo sapiens, UniProt Q9Y2H1)", "T11 construct": "gene STK38L", "protocol": "as §1"}, "[25]": {"target": "NEK1 (Homo sapiens, UniProt Q96PY6)", "sequence (Q96PY6 whole entry)": "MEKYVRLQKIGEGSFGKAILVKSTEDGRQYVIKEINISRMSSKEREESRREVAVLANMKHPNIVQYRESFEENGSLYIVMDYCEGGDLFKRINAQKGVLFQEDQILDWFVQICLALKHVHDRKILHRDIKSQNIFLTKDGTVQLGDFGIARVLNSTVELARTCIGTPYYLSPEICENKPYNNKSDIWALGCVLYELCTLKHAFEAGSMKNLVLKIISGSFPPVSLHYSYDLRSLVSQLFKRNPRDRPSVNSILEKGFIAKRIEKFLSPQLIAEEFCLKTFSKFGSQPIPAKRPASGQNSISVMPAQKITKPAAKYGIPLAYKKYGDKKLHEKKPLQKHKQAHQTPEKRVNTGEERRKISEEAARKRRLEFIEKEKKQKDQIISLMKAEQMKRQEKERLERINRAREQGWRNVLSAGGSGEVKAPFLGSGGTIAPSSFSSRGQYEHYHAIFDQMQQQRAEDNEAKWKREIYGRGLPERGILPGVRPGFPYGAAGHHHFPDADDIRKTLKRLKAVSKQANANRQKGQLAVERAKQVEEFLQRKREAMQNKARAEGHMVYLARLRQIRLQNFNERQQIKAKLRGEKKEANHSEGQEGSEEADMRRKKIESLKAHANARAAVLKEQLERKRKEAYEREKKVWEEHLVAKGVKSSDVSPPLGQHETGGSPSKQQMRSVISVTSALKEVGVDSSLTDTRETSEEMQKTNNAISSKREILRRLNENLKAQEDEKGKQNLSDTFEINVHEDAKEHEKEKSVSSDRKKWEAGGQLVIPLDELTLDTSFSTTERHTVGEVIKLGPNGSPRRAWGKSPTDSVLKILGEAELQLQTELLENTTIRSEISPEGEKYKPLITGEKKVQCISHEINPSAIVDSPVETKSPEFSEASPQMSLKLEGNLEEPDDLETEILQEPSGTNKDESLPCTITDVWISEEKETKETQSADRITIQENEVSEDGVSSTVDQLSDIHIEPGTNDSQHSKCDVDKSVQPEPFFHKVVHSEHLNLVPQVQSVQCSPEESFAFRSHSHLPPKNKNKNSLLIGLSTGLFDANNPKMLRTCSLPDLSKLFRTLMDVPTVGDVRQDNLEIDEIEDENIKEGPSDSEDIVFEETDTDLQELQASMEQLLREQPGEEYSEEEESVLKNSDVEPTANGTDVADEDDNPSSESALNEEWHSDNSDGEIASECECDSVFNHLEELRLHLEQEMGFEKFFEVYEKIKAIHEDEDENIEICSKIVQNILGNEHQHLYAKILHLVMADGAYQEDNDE", "protocol": "as §1"}, "[26]": {"target": "PAK4 (Homo sapiens, UniProt O96013)", "protocol": "as §1"}, "[27]": {"target": "PIM1 (Homo sapiens, UniProt P11309)", "protocol": "as §1"}, "[28]": {"target": "RET(Y791F) (Homo sapiens, UniProt P07949, Y791F)", "sequence (P07949 whole entry Y791F)": "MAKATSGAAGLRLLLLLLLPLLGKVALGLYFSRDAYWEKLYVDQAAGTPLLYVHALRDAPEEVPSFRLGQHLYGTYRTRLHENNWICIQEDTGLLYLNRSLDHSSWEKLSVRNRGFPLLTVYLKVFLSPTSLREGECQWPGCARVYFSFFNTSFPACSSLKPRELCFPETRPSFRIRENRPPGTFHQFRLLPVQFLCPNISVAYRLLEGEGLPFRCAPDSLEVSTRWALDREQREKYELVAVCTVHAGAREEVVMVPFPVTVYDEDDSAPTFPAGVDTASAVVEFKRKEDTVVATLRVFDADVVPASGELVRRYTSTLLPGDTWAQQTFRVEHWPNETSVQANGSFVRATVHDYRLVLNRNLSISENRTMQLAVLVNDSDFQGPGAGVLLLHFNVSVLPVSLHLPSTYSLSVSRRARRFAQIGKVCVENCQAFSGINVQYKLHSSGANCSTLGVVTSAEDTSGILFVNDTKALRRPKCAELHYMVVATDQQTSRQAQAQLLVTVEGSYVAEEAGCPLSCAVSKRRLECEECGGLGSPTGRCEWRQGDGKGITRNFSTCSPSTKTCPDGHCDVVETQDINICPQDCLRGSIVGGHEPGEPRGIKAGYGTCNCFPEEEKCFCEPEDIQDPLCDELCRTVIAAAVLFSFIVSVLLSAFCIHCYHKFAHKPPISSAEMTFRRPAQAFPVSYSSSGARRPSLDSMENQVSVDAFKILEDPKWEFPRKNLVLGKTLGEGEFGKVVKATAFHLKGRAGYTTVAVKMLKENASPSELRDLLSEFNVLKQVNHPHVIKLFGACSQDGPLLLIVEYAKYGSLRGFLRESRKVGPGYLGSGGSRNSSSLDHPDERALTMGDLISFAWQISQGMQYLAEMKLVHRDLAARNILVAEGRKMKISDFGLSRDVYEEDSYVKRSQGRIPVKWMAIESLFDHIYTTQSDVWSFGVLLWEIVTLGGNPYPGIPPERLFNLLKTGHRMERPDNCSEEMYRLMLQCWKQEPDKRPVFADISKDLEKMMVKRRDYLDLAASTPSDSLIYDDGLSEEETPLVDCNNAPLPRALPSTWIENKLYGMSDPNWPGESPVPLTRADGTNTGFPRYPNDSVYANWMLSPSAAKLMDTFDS", "protocol": "as §1"}, "[29]": {"target": "SPHK1 (Homo sapiens, UniProt Q9NYA1)", "sequence (Q9NYA1 whole entry)": "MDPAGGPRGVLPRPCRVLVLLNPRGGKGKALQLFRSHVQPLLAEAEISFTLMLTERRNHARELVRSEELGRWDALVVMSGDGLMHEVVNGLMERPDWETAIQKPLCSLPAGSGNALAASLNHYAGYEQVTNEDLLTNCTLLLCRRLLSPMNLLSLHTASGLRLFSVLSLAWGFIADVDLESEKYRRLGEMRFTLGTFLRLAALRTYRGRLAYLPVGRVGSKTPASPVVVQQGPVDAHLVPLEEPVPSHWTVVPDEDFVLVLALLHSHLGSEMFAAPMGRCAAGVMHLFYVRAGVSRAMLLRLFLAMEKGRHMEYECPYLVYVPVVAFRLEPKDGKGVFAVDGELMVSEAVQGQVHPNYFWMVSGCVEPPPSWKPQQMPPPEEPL", "protocol": "as §1"}, "[30]": {"target": "T12, p38γ (Homo sapiens, UniProt P53778)", "T12 construct": "gene MAPK12", "protocol": "as §1"}, "[31]": {"target": "T13, p70S6K (Homo sapiens, UniProt P23443)", "T13 construct": "gene RPS6KB1", "protocol": "as §1"}},
  "data": [
    {"smiles": "c1cc(-c2ccc3[nH]ncc3c2)ccn1", "note": "[TG693, 5-(4-pyridinyl)-1H-indazole]", "values": [
      {"measurement": "inhibition at 1 µM", "setting": "[1]", "result": -4.6, "unit": "%"},
      {"measurement": "inhibition at 1 µM", "setting": "[2]", "result": 2.6, "unit": "%"},
      {"measurement": "inhibition at 1 µM", "setting": "[3]", "result": 4.7, "unit": "%"},
      {"measurement": "inhibition at 1 µM", "setting": "[4]", "result": -2.2, "unit": "%"},
      {"measurement": "inhibition at 1 µM", "setting": "[5]", "result": 6.7, "unit": "%"},
      {"measurement": "inhibition at 1 µM", "setting": "[6]", "result": -1, "unit": "%"},
      {"measurement": "inhibition at 1 µM", "setting": "[7]", "result": -3.2, "unit": "%"},
      {"measurement": "inhibition at 1 µM", "setting": "[8]", "result": 14.6, "unit": "%"},
      {"measurement": "inhibition at 1 µM", "setting": "[9]", "result": 2.8, "unit": "%"},
      {"measurement": "inhibition at 1 µM", "setting": "[10]", "result": -15.2, "unit": "%"},
      {"measurement": "inhibition at 1 µM", "setting": "[11]", "result": 1.3, "unit": "%"},
      {"measurement": "inhibition at 1 µM", "setting": "[12]", "result": -7.5, "unit": "%"},
      {"measurement": "inhibition at 1 µM", "setting": "[13]", "result": -0.5, "unit": "%"},
      {"measurement": "inhibition at 1 µM", "setting": "[14]", "result": 6.9, "unit": "%"},
      {"measurement": "inhibition at 1 µM", "setting": "[15]", "result": -11.6, "unit": "%"},
      {"measurement": "inhibition at 1 µM", "setting": "[16]", "result": -5.9, "unit": "%"},
      {"measurement": "inhibition at 1 µM", "setting": "[17]", "result": -18, "unit": "%"},
      {"measurement": "inhibition at 1 µM", "setting": "[18]", "result": -5.9, "unit": "%"},
      {"measurement": "inhibition at 1 µM", "setting": "[19]", "result": -1.7, "unit": "%"},
      {"measurement": "inhibition at 1 µM", "setting": "[20]", "result": 0.8, "unit": "%"},
      {"measurement": "inhibition at 1 µM", "setting": "[21]", "result": 15.5, "unit": "%"},
      {"measurement": "inhibition at 1 µM", "setting": "[22]", "result": 45.7, "unit": "%"},
      {"measurement": "inhibition at 1 µM", "setting": "[23]", "result": 0.5, "unit": "%"},
      {"measurement": "inhibition at 1 µM", "setting": "[24]", "result": 7.5, "unit": "%"},
      {"measurement": "inhibition at 1 µM", "setting": "[25]", "result": -1.5, "unit": "%"},
      {"measurement": "inhibition at 1 µM", "setting": "[26]", "result": -13.7, "unit": "%"},
      {"measurement": "inhibition at 1 µM", "setting": "[27]", "result": 1.2, "unit": "%"},
      {"measurement": "inhibition at 1 µM", "setting": "[28]", "result": 3, "unit": "%"},
      {"measurement": "inhibition at 1 µM", "setting": "[29]", "result": -2.3, "unit": "%"},
      {"measurement": "inhibition at 1 µM", "setting": "[30]", "result": 1.4, "unit": "%"},
      {"measurement": "inhibition at 1 µM", "setting": "[31]", "result": 46, "unit": "%"}
    ]}
  ]
}
